Assay results: US11000033B2, “Ketone or oxime compound, and herbicide” (NISSAN CHEMICAL CORPORATION, priority 2014, dated 2021)

Columns and labels:
Type in all cases: in vivo
[1] = system: Avena fatua; experiment: Test Example 5: herbicidal effect by foliage application, plastic box (symbol I); conditions: 320 g/ha, 3 weeks after application
In short: (§1)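 After sowing into sterilized diluvial soil and growing two weeks under glass at 25° C. to 30° C., seedlings receive a uniform foliar spray of diluted emulsion. Damage is judged visually three weeks on.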

[2] = system: Apera spica-venti; experiment: Test Example 4: herbicidal effect by soil treatment (symbol L)
In short: (§2)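 Seeds were sown in sterilized diluvial soil, covered with about 1.5 cm of soil, and the soil surface was sprayed with a water-diluted emulsion of the compound at a predetermined rate. Plants grew in a greenhouse at 25° C. to 30° C.; effects were scored visually 3 weeks after application.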

[3] = system: soybean; experiment: Test Example 5: effect on crop by foliage application, plastic box (symbol d); conditions: 320 g/ha, 3 weeks after application
In short: (§3)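 Greenhouse test at 25° C. to 30° C. Seeds of crops and weeds were spot-sown in boxes of sterilized diluvial soil under roughly 1.5 cm soil cover, then grown for foliage treatment.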

[4] = system: Abutilon theophrasti; experiment: Test Example 5: herbicidal effect by foliage application, plastic box (symbol M); conditions: 320 g/ha, 3 weeks after application
In short: as §1

[5] = system: Monochoria vaginalis; experiment: Test Example 2: herbicidal activity, application during weed generation in submerged conditions (symbol C); conditions: Table 23; application herbicide amount 320 g/ha; grade 0-5 by criteria of Test Example 1
In short: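 Scoring of herbicidal effect took place 3 weeks after treatment, using the criteria of the earlier test. Treatment was water-surface application of diluted emulsifiable compound at a set dose. Plants were at one- to two-leaf stage in submerged alluvial soil (4 cm depth), greenhouse 25-30° C.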

[6] = system: Scirpus juncoides; experiment: Test Example 1: herbicidal activity, application before weed generation in submerged conditions (symbol B); conditions: application herbicide amount 320 g/ha
In short: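 Flooded alluvial soil (4 cm water) was mixed-sown with the three weed species, and 2.5-leaf rice seedlings were transplanted. On sowing day, a water-diluted emulsion at a predetermined rate was applied to the water surface. After 3 weeks in a 25–30 °C greenhouse, effect was scored 0–5.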

[7] = system: Veronica persica; experiment: Test Example 4: herbicidal effect by soil treatment (symbol R)
In short: as §2

[8] = system: Digitaria ciliaris; experiment: Test Example 5: herbicidal effect by foliage application, plastic box (symbol F); conditions: 320 g/ha, 3 weeks after application
In short: as §1

[9] = system: rapeseed; experiment: Test Example 5: effect on crop by foliage application, plastic box (symbol g); conditions: 320 g/ha, 3 weeks after application
In short: as §3

[10] = system: rice; experiment: Test Example 4: effect on crop by soil treatment (symbol b)
In short: (§4)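 Crop seeds, among them rice, wheat, beet and rapeseed, were sown in sterilized diluvial soil and covered with about 1.5 cm of soil. Boxes were kept in a greenhouse at 25° C. to 30° C. for plant growth.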

[11] = system: Setaria viridis; experiment: Test Example 5: herbicidal effect by foliage application, plastic box (symbol G); conditions: 320 g/ha, 3 weeks after application
In short: as §1

[12] = system: Veronica persica; experiment: Test Example 5: herbicidal effect by foliage application, plastic box (symbol R); conditions: 320 g/ha, 3 weeks after application
In short: as §1

[13] = system: Echinochloa crus-galli var. crus-galli; experiment: Test Example 5: herbicidal effect by foliage application, plastic box (symbol H); conditions: 320 g/ha, 3 weeks after application
In short: as §1

[14] = system: Chenopodium album; experiment: Test Example 5: herbicidal effect by foliage application, plastic box (symbol O); conditions: 320 g/ha, 3 weeks after application
In short: as §1

[15] = system: Avena fatua; experiment: Test Example 4: herbicidal effect by soil treatment (symbol I)
In short: as §2

[16] = system: Setaria viridis; experiment: Test Example 4: herbicidal effect by soil treatment (symbol G)
In short: as §2

[17] = system: Apera spica-venti; experiment: Test Example 5: herbicidal effect by foliage application, plastic box (symbol L); conditions: 320 g/ha, 3 weeks after application
In short: as §1

[18] = system: rapeseed; experiment: Test Example 4: effect on crop by soil treatment (symbol g)
In short: as §4

[19] = application herbicide amount 320 g/ha

Compound | I: Avena fatua, herbicidal effect grade [1] | L (Apera spica-venti) herbicidal effect grade [2, 19] | d: soybean, effect on crop grade [3] | M: Abutilon theophrasti, herbicidal effect grade [4] | Herbicidal effect grade, B: Scirpus juncoides [6] | R (Veronica persica) herbicidal effect grade [7, 19] | F: Digitaria ciliaris, herbicidal effect grade [8] | g: rapeseed, effect on crop grade [9] | b (directly sowed rice plant) effect on crop grade [10, 19] | G: Setaria viridis, herbicidal effect grade [11] | R: Veronica persica, herbicidal effect grade [12] | H: Echinochloa crus-galli var. crus-galli, herbicidal effect grade [13] | O: Chenopodium album, herbicidal effect grade [14] | I (Avena fatua) herbicidal effect grade [15, 19] | G (Setaria viridis) herbicidal effect grade [16, 19] | L: Apera spica-venti, herbicidal effect grade [17] | also measured
CON=C(CC1CC(O)=C(c2c(C)cc(C)cc2C)C1=O)c1ccccc1 (centres unmarked) [1-047] | 0 (Herbicidal ratio of 5% or lower (almost no effect)) | 0 (Herbicidal ratio of 5% or lower (almost no effect)) | 0 (Herbicidal ratio of 5% or lower (almost no effect)) | 0 (Herbicidal ratio of 5% or lower (almost no effect)) | 0 (Herbicidal ratio of 5% or lower (almost no effect)) | 0 (Herbicidal ratio of 5% or lower (almost no effect)) | 1 (Herbicidal ratio of 5% or higher and lower than 20%) | 3 (Herbicidal ratio of 40% or higher and lower than 70%) | 4 (Herbicidal ratio of 70% or higher and lower than 90%) | 1 (Herbicidal ratio of 5% or higher and lower than 20%) | 0 (Herbicidal ratio of 5% or lower (almost no effect)) | 3 (Herbicidal ratio of 40% or higher and lower than 70%) | 0 (Herbicidal ratio of 5% or lower (almost no effect)) | 0 (Herbicidal ratio of 5% or lower (almost no effect)) | 0 (Herbicidal ratio of 5% or lower (almost no effect)) | 1 (Herbicidal ratio of 5% or higher and lower than 20%) | Herbicidal effect grade, C: Monochoria vaginalis [5]: 0 (Herbicidal ratio of 5% or lower (almost no effect))
CON=C(C)CC1CC(OC(=O)COc2ccccc2[N+](=O)[O-])=C(c2c(C)cc(C)cc2C)C1=O (centres unmarked) [1-071] | 5 (Herbicidal ratio of 90% or more (almost completely withered)) | 5 (Herbicidal ratio of 90% or more (almost completely withered)) | 4 (Herbicidal ratio of 70% or higher and lower than 90%) | 4 (Herbicidal ratio of 70% or higher and lower than 90%) | 4 (Herbicidal ratio of 70% or higher and lower than 90%) | 0 (Herbicidal ratio of 5% or lower (almost no effect)) | 5 (Herbicidal ratio of 90% or more (almost completely withered)) | 4 (Herbicidal ratio of 70% or higher and lower than 90%) | 5 (Herbicidal ratio of 90% or more (almost completely withered)) | 5 (Herbicidal ratio of 90% or more (almost completely withered)) | 1 (Herbicidal ratio of 5% or higher and lower than 20%) | 5 (Herbicidal ratio of 90% or more (almost completely withered)) | 1 (Herbicidal ratio of 5% or higher and lower than 20%) | 4 (Herbicidal ratio of 70% or higher and lower than 90%) | 5 (Herbicidal ratio of 90% or more (almost completely withered)) | 5 (Herbicidal ratio of 90% or more (almost completely withered)) | g (rapeseed) effect on crop grade [18, 19]: 4 (Herbicidal ratio of 70% or higher and lower than 90%)
C=CC(CC1CC(O)=C(c2c(C)cc(C)cc2C)C1=O)=NOC (centres unmarked) [1-086] |  |  |  |  | 0 (Herbicidal ratio of 5% or lower (almost no effect)) |  |  |  |  |  |  |  |  |  |  |  | I: Avena fatua, herbicidal effect (criteria 0-5) [1]: 4 (Herbicidal ratio of 70% or higher and lower than 90%); L: Apera spica-venti, herbicidal effect grade ([2]; 320 g/ha): 3 (Herbicidal ratio of 40% or higher and lower than 70%); d: soybean, effect on crop (criteria 0-5) [3]: 0 (Herbicidal ratio of 5% or lower (almost no effect)); M: Abutilon theophrasti, herbicidal effect (criteria 0-5) [4]: 0 (Herbicidal ratio of 5% or lower (almost no effect)); R: Veronica persica, herbicidal effect grade ([7]; 320 g/ha): 0 (Herbicidal ratio of 5% or lower (almost no effect)); F: Digitaria ciliaris, herbicidal effect (criteria 0-5) [8]: 0 (Herbicidal ratio of 5% or lower (almost no effect)); g: rapeseed, effect grade on crop ([18]; 320 g/ha): 2 (Herbicidal ratio of 20% or higher and lower than 40%); g: rapeseed, effect on crop (criteria 0-5) [9]: 3 (Herbicidal ratio of 40% or higher and lower than 70%); b: directly sowed rice plant, effect grade on crop ([10]; 320 g/ha): 5 (Herbicidal ratio of 90% or more (almost completely withered)); G: Setaria viridis, herbicidal effect (criteria 0-5) [11]: 3 (Herbicidal ratio of 40% or higher and lower than 70%); R: Veronica persica, herbicidal effect (criteria 0-5) [12]: 2 (Herbicidal ratio of 20% or higher and lower than 40%); H: Echinochloa crus-galli var. crus-galli, herbicidal effect (criteria 0-5) [13]: 5 (Herbicidal ratio of 90% or more (almost completely withered)); O: Chenopodium album, herbicidal effect (criteria 0-5) [14]: 0 (Herbicidal ratio of 5% or lower (almost no effect)); I: Avena fatua, herbicidal effect grade ([15]; 320 g/ha): 3 (Herbicidal ratio of 40% or higher and lower than 70%); G: Setaria viridis, herbicidal effect grade ([16]; 320 g/ha): 4 (Herbicidal ratio of 70% or higher and lower than 90%); L: Apera spica-venti, herbicidal effect (criteria 0-5) [17]: 4 (Herbicidal ratio of 70% or higher and lower than 90%)
CC#Cc1cc(C)c(C2=C(OC(=O)COc3ccccc3)CC(CC(=NOC)C(C)C)C2=O)c(C)c1 (centres unmarked) [9-003] | 4 (Herbicidal ratio of 70% or higher and lower than 90%) |  | 4 (Herbicidal ratio of 70% or higher and lower than 90%) | 4 (Herbicidal ratio of 70% or higher and lower than 90%) | 4 (Herbicidal ratio of 70% or higher and lower than 90%) |  | 5 (Herbicidal ratio of 90% or more (almost completely withered)) | 4 (Herbicidal ratio of 70% or higher and lower than 90%) |  | 5 (Herbicidal ratio of 90% or more (almost completely withered)) | 4 (Herbicidal ratio of 70% or higher and lower than 90%) | 5 (Herbicidal ratio of 90% or more (almost completely withered)) | 3 (Herbicidal ratio of 40% or higher and lower than 70%) |  |  | 5 (Herbicidal ratio of 90% or more (almost completely withered)) | Herbicidal effect grade, L: Apera spica-venti [2, 19]: 5 (Herbicidal ratio of 90% or more (almost completely withered)); Herbicidal effect grade, R: Veronica persica [7, 19]: 0 (Herbicidal ratio of 5% or lower (almost no effect)); Effect on crop grade, g: rapeseed [18, 19]: 5 (Herbicidal ratio of 90% or more (almost completely withered)); Effect on crop grade, b: directly sowed rice plant [10, 19]: 5 (Herbicidal ratio of 90% or more (almost completely withered)); Herbicidal effect grade, I: Avena fatua [15, 19]: 3 (Herbicidal ratio of 40% or higher and lower than 70%); Herbicidal effect grade, G: Setaria viridis [16, 19]: 5 (Herbicidal ratio of 90% or more (almost completely withered))
